Earlier results in patent publication US9623127B2, “Multimodal contrast and radiopharmaceutical agent for an imaging and a targeted therapy guided by imaging” (CENTRE NATIONAL DE LA RECHERCHE SCIENTIFIQUE, priority 2011, dated 2017).

Conditions: 0.6 T, 20° C.

For O=C([O-])CN(CCN(CC(=O)[O-])CC(=O)O)CCN(CC(=O)[O-])CC(=O)O.[Gd+3] [Gd(III)DTPA], the “longitudinal relaxivity r1” value is given as 5.4 mM⁻¹ s⁻¹.
